Each structure is given as a SMILES string. Where a SMILES comes first, the peptide text is derived from it. Bridges are numbered along the chain shown (N, C = ends).

The target of data set [1] is T1, porcine pancreatic elastase (PPE) (Sus scrofa, UniProt P00772).
T1 construct: purchased Sigma-Aldrich E0127
The arrangement: method as in PMID 2049103. Conditions: reported; cited from earlier work.

Data set [2] in a line: Plasma stability, read out by enzyme inhibitory activity. The class given is in vitro ADME. Conditions: lyophilized human plasma resuspended in water, 500 nM, 37 °C, 0-48 h, triplicate samples. On the procedure:
Lyophilized human plasma (400100, Cayman, Ann Arbor, MI, USA) was resuspended in sterile water according to the instruction, then ShSPI was added to each equivalent volume with a final concentration of 500 nM, and samples were co-incubated at 37 °C for two days. Triplicate samples were collected at selected time points (0, 6, 12, 18, 24, 30, 36, 42, and 48 h) and protease activity was tested as described above.

Data set [3] concerns the target T2, human neutrophil elastase (HNE) (Homo sapiens, UniProt P08246).
T2 construct: purchased Sigma-Aldrich E8140
T2 sequence (P08246 30-267): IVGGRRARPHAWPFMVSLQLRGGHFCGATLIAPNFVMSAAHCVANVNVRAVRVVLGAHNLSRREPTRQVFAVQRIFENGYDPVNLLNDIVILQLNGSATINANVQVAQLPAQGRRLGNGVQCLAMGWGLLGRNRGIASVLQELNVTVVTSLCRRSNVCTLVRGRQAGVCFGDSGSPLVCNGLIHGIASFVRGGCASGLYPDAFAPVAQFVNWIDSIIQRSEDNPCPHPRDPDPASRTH
As to the kind of experiment: Surface plasmon resonance, ShSPI immobilized, HNE injected. The following applies: SPR Biacore 3000, ShSPI on CM5 chip, HNE injected 180 s at 10 μL/min, HBS-P buffer, Langmuir binding fit; read-out: ka, HNE. On the procedure:
(§1) Sensor chips CM5 (BR100012), 10 mM acetate buffer (BR100350, pH 4.0), amine coupling kit (BR100050), and HBS-P buffer (BR100826, used as running buffer) were all obtained from GE Healthcare Bio-sciences AB (Uppsala, Sweden). Data were collected and analyzed by BIAcore System (Version 3000, GE Healthcare Life Sciences, Pittsburgh, PA, USA) and BIA evaluation software (Version 3.0, GE Healthcare Life Sciences, Pittsburgh, PA, USA).
(§2) Before testing, ShSPI (100 μg/mL in acetate buffer, pH 4.0) was immobilized to the surface of CM5 chip. Following a standard amine coupling chemistry, running buffer was used to reach equilibration. HNE or PPE (doubling dilution) was injected over the immobilized ShSPI at a flow rate of 10 μL/min, and the association rate (ka, M^−1s^−1) was determined. After 3 min, running buffer was applied to the surface, and the dissociation rate (kd, s^−1) was determined over 15 min for PPE and 30 min for HNE, and another 500 μL of running buffer were injected at a flow rate of 20 μL/min to rebalance the chip. The equilibrium association constant (KA, M^−1) and the equilibrium dissociation constant (KD, M) were determined by ka/kd and kd/ka, respectively.
Background: In SPR one partner is held on a chip, and binding of the other changes the refractive index at the surface.

For data set [4], the target named is T1, porcine pancreatic elastase (PPE). Briefly: Surface plasmon resonance, ShSPI immobilized, PPE injected. The following applies: SPR Biacore 3000, ShSPI on CM5 chip, PPE injected 180 s at 10 μL/min, HBS-P buffer, Langmuir binding fit; read-out: ka, PPE. On the procedure: as §1, §2
Data set [5] shares this target. Briefly: Protease inhibition assay, porcine pancreatic elastase (chromogenic substrate, Dixon method). The class given is biochemical. Conditions: 0.05 M Tris-HCl pH 7.8, 37 °C, 10 min pre-incubation, PPE 1 μg/mL, substrate MeOSuc-Ala-Ala-Pro-Val-pNA 30, 60, 90 μg/mL, absorbance 405 nm. The source says:
(§3) Human neutrophils elastase (HNE, E8140), porcine pancreatic elastase (PPE, E0127), cathepsin G (CG, C4428), human trypsin (T6424), α-chymotrypsin from human pancreas (C8946), and thrombin from human plasma (T4393) were all purchased from Sigma-Aldrich (USA). Factor Xa (FXa, HFXa 1011) and Factor XIIa (FXIIa, HFXIIa 1212a) were from Enzyme Research Laboratories (South Bend, IN, USA). Kallikrein from human plasma (420307) was from Merck Millipore (Billerica, MA, USA).
Substrate for HNE and PPE (MeOSuc-Ala-Ala-Pro-Val-pNA, 324696) was purchased from Merck Millipore (USA). […]
(§4) As mentioned in our previous study, experiments for protease inhibitory activity were assayed in buffer (0.05 M Tris-HCl, pH 7.8) at 37 °C. […] At the end of the incubation, the reaction was initiated by the addition of the exclusive substrate solution and monitored by recording the absorbance at 405 nm every 30 s for 30 min. Enzyme activity in each well was calculated based on the initial slope of the reaction curve, and percentage of the initial slope of the uninhibited reaction was expressed. The inhibition constant Ki value was determined according to the Dixon method.

In data set [6] the target is T2, human neutrophil elastase (HNE). As to the kind of experiment: Protease inhibition assay, human neutrophil elastase (chromogenic substrate, Dixon method). The class given is biochemical.
Description: as §3
Substrate for HNE and PPE (MeOSuc-Ala-Ala-Pro-Val-pNA, 324696) was purchased from Merck Millipore (USA). Substrates for CG (Succinyl-Ala-Ala-Pro-Phe-pNA, 573462), trypsin (Nalpha-Benzoyl-L-arginine 4-nitroanilide hydrochloride, B3133), FXa (CH3OCO-D-CHA-Gly-Arg-pNA-AcOH, F3301), chymotrypsin (N-Succinyl-Gly-Gly-Phe-pNA, S1899), thrombin (β-Ala-Gly-Arg-pNA diacetate, T3068), and kallikrein (Z-Phe-Arg 7-amido-4-methylcoumarin hydrochloride, C9521) were purchased from Sigma-Aldrich (USA).
as §4

T1 sequence (P00772 27-266): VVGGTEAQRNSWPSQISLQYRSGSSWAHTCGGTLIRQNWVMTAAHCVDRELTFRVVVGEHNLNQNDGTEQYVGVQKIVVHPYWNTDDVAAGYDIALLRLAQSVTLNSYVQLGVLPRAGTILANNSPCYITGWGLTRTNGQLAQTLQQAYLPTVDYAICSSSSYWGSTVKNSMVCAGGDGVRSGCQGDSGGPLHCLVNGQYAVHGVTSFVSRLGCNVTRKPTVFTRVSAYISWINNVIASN

With `CC(C)(C)C(=O)Oc1ccc(S(=O)(=O)Nc2ccccc2C(=O)NCC(=O)O)cc1` [sivelestat], the “Inhibitory activity to PPE (literature)” value in data set [1] was “little inhibitory activity”.
On to `CC[C@H](C)[C@@H]1NC(=O)[C@H](C)NC(=O)[C@@H]2CCCN2C(=O)[C@@H]2CSSC[C@H](NC(=O)[C@H](CO)NC(=O)[C@H](CC(N)=O)NC(=O)[C@H](CO)NC(=O)[C@H](Cc3ccc(O)cc3)NC(=O)[C@H](CCSC)NC(=O)[C@H](CCCNC(=N)N)NC(=O)CNC(=O)[C@H](Cc3ccccc3)NC(=O)[C@H](CCC(=O)O)NC(=O)[C@H](CC(=O)O)NC(=O)[C@H](Cc3ccccc3)NC(=O)[C@H](C(C)C)NC(=O)[C@@H]3CCCN3C(=O)[C@H](CCC(N)=O)NC(=O)[C@H](Cc3ccc(O)cc3)NC1=O)C(=O)N[C@@H](CCC(=O)O)C(=O)N[C@@H](CCSC)C(=O)N[C@@H](CCC(N)=O)C(=O)N[C@@H](CCCNC(=N)N)C(=O)N[C@@H](C)C(=O)N[C@@H](CCCNC(=N)N)C(=O)N[C@H](C(=O)N[C@@H](CC(C)C)C(=O)N[C@@H](CCCNC(=N)N)C(=O)NCC(=O)O)CSSC[C@H](N)C(=O)N1CCC[C@H]1C(=O)N[C@@H](CCC(N)=O)C(=O)N[C@@H](C(C)C)C(=O)N2` [ShSPI] (H-CPQVCPAIYQPVFDEFGRMYSNSCEMQRARCLRG-OH; disulfide 1-31, 5-24), for which the “Stability in human plasma” value in data set [2] is listed as “no significant degradation over 48 h”. Further, the values for the kon in data set [3] and in data set [4] were 4500 M⁻¹ s⁻¹ and 45000 M⁻¹ s⁻¹, respectively. Also, the values for the Ki in data set [5] and in data set [6] were 226 ± 20 nM and 12.6 ± 2 nM, respectively.

The term Ki denotes the dissociation constant of the complex between target and ligand, obtained from inhibition or displacement.

The record behind these values is publication PMC6950245, “Identification and Characterization of ShSPI, a Kazal-Type Elastase Inhibitor from the Venom of Scolopendra Hainanum” (Toxins, 2019).
